Measured values published in ChEMBL document CHEMBL5058564, “EUbOPEN Chemogenomics Library 2 (Incucyte)” (2022).
Where a SMILES comes first, the peptide text is derived from it. [ ]: non-standard residue; d: D form. The star is where a group is joined. dPhe(4-NHCONH2) = NC(=O)Nc1ccc(C[C@@H](N)C(=O)O)cc1; Dihydroorotyl(S) = O=C1C[C@@H](C(=O)*)NC(=O)N1; dPhe(4-Cl) = N[C@H](Cc1ccc(Cl)cc1)C(=O)O; Phe(4-NH2) = Nc1ccc(C[C@H](N)C(=O)O)cc1; d2Nal = N[C@H](Cc1ccc2ccccc2c1)C(=O)O; Lys(iPr) = CC(C)NCCCC[C@H](N)C(=O)O; d3Pal = N[C@H](Cc1cccnc1)C(=O)O

Tests used:
Assay type in all cases: toxicity, cell-based
Fibroblast = assay: Incucyte cell viability with human fibroblast; details: 10 µM, compound concentration 10 uM
U2OS = assay: Incucyte cell viability with U2OS; details: human, 10 µM, compound concentration 10 uM
HEK-293T = assay: Incucyte cell viability with HEK293T; details: human, 10 µM, compound concentration 10 uM
[1] = 0 h, replicate number 1, timepoint 0 hours
[2] = 0 h, replicate number 2, timepoint 0 hours
[3] = 12 h, replicate number 1, timepoint 12 hours
[4] = 18 h, replicate number 1, timepoint 18 hours
[5] = 24 h, replicate number 1, timepoint 24 hours
[6] = 6 h, replicate number 1, timepoint 6 hours
[7] = 12 h, replicate number 2, timepoint 12 hours
[8] = 18 h, replicate number 2, timepoint 18 hours
[9] = 24 h, replicate number 2, timepoint 24 hours
[10] = 6 h, replicate number 2, timepoint 6 hours
Also: unitless GR value; below 1 slowed growth and below 0 cell loss.

Structure (SMILES) | Growth Rate (Fibroblast; [1]) | Growth Rate (Fibroblast; [2]) | Growth Rate (Fibroblast; [3]) | Growth Rate (Fibroblast; [4]) | Growth Rate (Fibroblast; [5]) | Growth Rate (U2OS; [1]) | Growth Rate (U2OS; [6]) | Growth Rate (U2OS; [3]) | Growth Rate (U2OS; [4]) | Growth Rate (HEK-293T; [1]) | Growth Rate (HEK-293T; [2]) | Growth Rate (HEK-293T; [6]) | Growth Rate (U2OS; [2]) | Growth Rate (U2OS; [7]) | Growth Rate (HEK-293T; [5]) | Growth Rate (Fibroblast; [6]) | Growth Rate (Fibroblast; [7]) | Growth Rate (U2OS; [8]) | Growth Rate (HEK-293T; [3]) | Growth Rate (HEK-293T; [4]) | other results
CCCN(CCC)CCc1cccc2c1CC(=O)N2.Cl [ROPINIROLE HYDROCHLORIDE] | 0.73 | -0.1 | 0.31 | 0.67 | 0.64 | 0.4 | 0.57 | 0.77 | 0.76 | 0.6 | 0.1 | 0.94 |  |  |  |  |  |  |  |  | 
Cc1nn(C)c2nc(NNC(=O)Nc3cc(Cl)nc(Cl)c3)cc(C(C)C)c12 | 0.09 | 0.58 |  |  |  |  |  |  |  | 0.64 | 0.57 |  | -1 | 0.96 | 0.97 |  |  |  |  |  | 
CC(=O)N[C@H](Cc1ccc2ccccc2c1)C(=O)N[C@H](Cc1ccc(Cl)cc1)C(=O)N[C@H](Cc1cccnc1)C(=O)N[C@@H](CO)C(=O)N[C@@H](Cc1ccc(NC(=O)[C@@H]2CC(=O)NC(=O)N2)cc1)C(=O)N[C@H](Cc1ccc(NC(N)=O)cc1)C(=O)N[C@@H](CC(C)C)C(=O)N[C@@H](CCCCNC(C)C)C(=O)N1CCC[C@H]1C(=O)N[C@H](C)C(N)=O [DEGARELIX] (Ac-[d2Nal][dPhe(4-Cl)][d3Pal]S[Phe(4-NH2)](Dihydroorotyl(S))[dPhe(4-NHCONH2)]L[Lys(iPr)]P[dA]-NH2) | -1 | -0.9 |  |  |  | -1 |  |  |  | -0.99 |  |  |  |  |  |  |  |  |  |  | 
CN(C)c1ccnc2sc3c(=O)n(N4CCCCCC4)cnc3c12 |  |  | -0.14 | -0.36 | -0.42 |  | 0.61 | 0.54 | 0.51 | 0.91 | 0.47 |  | -1 |  |  | -0.22 | 0.1 | 0.91 |  |  | Growth Rate (Fibroblast; [8]): 0.11; Growth Rate (Fibroblast; [9]): -0.22; Growth Rate (U2OS; [5]): 0.78; Growth Rate (HEK-293T; [10]): 0.98
CSc1cc2c(cc1C(F)(F)F)N(C(=O)Nc1cccnc1)CC2 | -0.3 | 0.46 |  |  |  |  |  |  | 0.84 |  | -0.27 | 0.82 |  | 0.94 | 0.64 |  |  |  | 0.63 | 0.75 | Growth Rate (U2OS; [5]): 0.99; Growth Rate (U2OS; [9]): 0.93
CNc1nc(NCc2ncccn2)c2c(-c3ccc4ncccc4c3)c[nH]c2n1 | 0.14 | 0.3 | 0.36 | -0.14 | 0.06 | 0.67 |  |  | 0.27 | 0.21 | 0.76 | 0.37 |  | 0.95 | -0.25 |  |  | 0.56 | -0.16 | -0.23 | Growth Rate (U2OS; [5]): 0.4; Growth Rate (U2OS; [9]): 0.42; Growth Rate (HEK-293T; [10]): 0.12; Growth Rate (HEK-293T; [7]): -0.1; Growth Rate (HEK-293T; [8]): -0.28
Nc1cnc(N2CCc3cc(S(=O)(=O)Nc4c(F)cc(Cl)cc4F)cc(N4CCCC4=O)c32)nc1 [TP-020n] | 0.01 | -0.22 |  |  | 0.92 | -0.04 | 0.53 | 0.72 | 0.65 | 0.54 | 0.76 | 0.61 |  |  | 0.74 |  |  |  | 0.37 | 0.61 | Growth Rate (U2OS; [5]): 0.66; Growth Rate (HEK-293T; [7]): 0.71; Growth Rate (HEK-293T; [8]): 0.9; Growth Rate (HEK-293T; [9]): 0.77
CSCC[C@H](NC=O)C(=O)N[C@@H](CC(C)C)C(=O)N[C@@H](Cc1ccccc1)C(=O)O | 0.43 | 0.65 | 0.83 | 0.58 | 0.27 |  |  |  |  | 0.95 | 0.68 |  |  | 0.83 | 0.82 | 0.81 | 0.46 | 0.92 | 1 | 0.78 | Growth Rate (Fibroblast; [10]): 0.42; Growth Rate (Fibroblast; [8]): 0.69; Growth Rate (Fibroblast; [9]): 0.36; Growth Rate (U2OS; [10]): 0.44; Growth Rate (U2OS; [9]): 0.97; Growth Rate (HEK-293T; [10]): 0.85; Growth Rate (HEK-293T; [7]): 0.9
CC[C@@]1(O)C(=O)OCc2c1cc1n(c2=O)Cc2cc3ccccc3nc2-1 [CAMPTOTHECIN] | -0.02 | 0.11 |  |  |  | -0.11 | 0.7 | 0.75 | 0.59 | -0.84 | 0.83 | -0.29 | -0.34 | 0.64 | 0.65 | 1 |  | 0.33 | 0.88 |  | Growth Rate (U2OS; [10]): 0.82; Growth Rate (U2OS; [5]): 0.48; Growth Rate (U2OS; [9]): 0.2; Growth Rate (HEK-293T; [9]): 0.41
COc1cc(N2CCN(C)CC2)ccc1Nc1nccc(-c2cn(C)c3cnccc23)n1 | -0.91 | -0.24 |  |  |  | 0.8 |  |  |  | -0.61 | -0.28 |  | -1 |  |  |  |  |  |  |  | Growth Rate (U2OS; [9]): 0.96; Growth Rate (HEK-293T; [9]): 0.95
CC(F)(F)CN1CCOc2c(nn(-c3ccccc3Cl)c2-c2ccc(Cl)cc2)C1=O |  |  | 0.01 | -0.21 | -0.09 |  |  |  |  |  |  |  | -1 |  |  | -0.37 | 0.22 |  |  |  | Growth Rate (Fibroblast; [10]): 0.94; Growth Rate (Fibroblast; [8]): 0.75; Growth Rate (Fibroblast; [9]): 0.06; Growth Rate (HEK-293T; [7]): 0.82
CC(C)C[C@@H]1NC(=O)[C@@H](C(C)C)NC(=O)[C@@H]2CCCN2C(=O)[C@@H](CC(=O)O)NC(=O)[C@@H](Cc2c[nH]c3ccccc23)NC1=O [BQ-123] (cyclo(L[dW][dD]P[dV])) | 0.41 | 0.34 | 0.87 | 0.98 |  |  | 0.51 | 0.65 | 0.49 |  | 0.79 | 0.89 | -1 |  | 0.97 | 0.81 | 0.89 |  | 0.92 | 0.91 | Growth Rate (Fibroblast; [10]): 0.18; Growth Rate (Fibroblast; [8]): 0.94; Growth Rate (U2OS; [10]): 0.68; Growth Rate (U2OS; [5]): 0.93
Cc1nnc2n1-c1sc(CCC(=O)N3CCOCC3)cc1C(c1ccccc1Cl)=NC2 [APAFANT] |  | 0.77 | 0.81 |  |  |  | 0.99 |  |  | 0.99 |  |  |  | 0.88 |  | 0.26 | 0.51 | 0.75 |  |  | Growth Rate (Fibroblast; [10]): 0.74; Growth Rate (Fibroblast; [8]): 0.73; Growth Rate (Fibroblast; [9]): 0.95; Growth Rate (U2OS; [10]): 0.76; Growth Rate (U2OS; [9]): 0.93
CC(C)C[C@H](CO)Nc1nc(S[C@@H](C)c2ccccc2)nc2nc(N)sc12 [AZD-8797] | 0.26 |  | 0.47 | 0.83 | 0.54 |  |  | 0.93 |  |  |  |  | -1 | 0.82 | 0.93 | 0.37 |  | 0.7 | 0.77 | 0.82 | Growth Rate (U2OS; [9]): 0.79; Growth Rate (HEK-293T; [7]): 0.99
Fc1cccc(/C=N/N=C/c2cccc(F)c2)c1 |  |  | 0.7 |  | 0.91 |  |  |  |  |  | 0.2 | 0.72 | 0.84 | 0.84 | 0.96 | -0.08 |  |  | 0.77 | 0.89 | Growth Rate (U2OS; [10]): 0.83
CCCCC(=O)N(Cc1ccc(-c2ccccc2-c2nnn[nH]2)cc1)[C@H](C(=O)O)C(C)C |  | 0.94 |  |  |  |  | 0.76 |  |  |  | 0.85 | 0.44 | -0.99 | 0.99 | 0.8 |  | 0.96 | 0.92 | 0.75 | 0.6 | Growth Rate (Fibroblast; [10]): 0.44; Growth Rate (HEK-293T; [10]): 0.43; Growth Rate (HEK-293T; [7]): 0.94
Cl.NCCc1c[nH]c2ccc(O)cc12 [SEROTONIN HYDROCHLORIDE] |  | 0.19 |  |  |  | 0.29 | 0.46 | 0.38 | 0.67 | 0.58 | 0.43 |  | 0.12 | 0.97 |  |  | 1 |  |  |  | Growth Rate (U2OS; [10]): 0.79; Growth Rate (U2OS; [5]): 0.62
